Measured values as given in patent publication US20160089319A1, “ACTIVES FOR STIMULATING DIFFERENTIATION OF KERATINOCYTES TO LIGHTEN HYPERPIGMENTED SKIN” (ELC MANAGEMENT LLC, priority 2014, published 2016).

Tested on: basement membrane in hyperpigmented lesions
Assay: Further studies by the inventors on morphology of the basement membrane in hyperpigmented lesions (results not shown)
Type: in vivo
Conditions: formulation containing the substance but no Phytofix

## sodium ribonucleic acid
  improvement of the morphology of the basement membrane: no improvement of the morphology of the basement membrane
